We go through 1 molecule from patent US20200009130A1, “OCULAR DISTRIBUTION AND PHARMACOKINETICS OF LIFITEGRAST FORMULATIONS” (SARcode Bioscience Inc., priority 2016, published 2020).

The term Cmax denotes the maximum level reached in the sampled fluid or tissue. Usually Tmax stands for the time at which the peak concentration occurs. Broadly, the half-life is the time needed for the level to fall by half in the phase considered. A high value points to slow decline.

A short description of series [1]: in vivo. The arrangement: species or system New Zealand Red/White F1 Cross rabbits. The conditions noted are these: female, New Zealand Red/White F1 Cross, rabbit. How it is done:
In this experiment, female pigmented rabbits were assigned to receive one of two formulations of lifitegrast (#1 and #2) for 5 consecutive days. Each treatment group consisted of 25 rabbits. Animals received a single topical ocular dose of lifitegrast in each eye b.i.d.
(except on study day 5), approximately 12 hours apart (±1 hour), at a target dose level of 1.75 mg/eye/dose (35 μL/eye/dose). On study day 5, animals were dosed in the morning only. Treatment groups 1 and 2 were dosed on separate days. The in-life portion of the study was conducted in May 2014. This study adhered to the ARVO Statement for the Use of Animals in Ophthalmic and Vision Research and all procedures in the study were in compliance with the Animal Welfare Act Regulations (9 CFR 3).
Fifty female New Zealand Red/White F1 Cross rabbits from Covance Research Products (Denver, Pa., USA) were used in the study. The animals were acclimated to study conditions for 13 days before dose administration. At dosing, the animals weighed 3177 to 4271 g and were at least 6 months of age. Animals were housed individually, in suspended stainless steel cages, with food and water ad libitum, and under a 12-hour light/12-hour darkness cycle throughout the study. Animals were not randomized, but were assigned to animal numbers based on overall health and the results of predose ophthalmic examinations. Ophthalmic examinations were performed by a board-certified veterinary ophthalmologist once at baseline (pre dose) using a Kowa hand-held slit-lamp biomicroscope and an indirect ophthalmoscope with a condensing lens to ensure the study animals were healthy and had no ocular findings pre-treatment.
Formulations for the study that would be representative of the clinical material (confirmed by analytical data) were prepared at Covance Laboratories Inc. In each formulation, lifitegrast was added to dose vehicle while stirring, and pH adjusted with hydrochloric acid (HCl) and/or sodium hydroxide (NaOH). The formulation was stirred until a clear solution was obtained, filtered with a 0.22 μm filter (Millipore® Millex-GV, 0.22 μm, Durapore® PVDF) and stored at approximately 5° C. Analysis of the formulations was performed by Almac Sciences, Souderton, Pa., USA, and concentrations were measured as 49.4 and 49.3 mg/mL for formulations #1 and #2, respectively.
Formulation #1: dose vehicle consisted of sterile water for injection, sodium chloride, sodium phosphate dibasic anhydrous, sodium bicarbonate, ethylenediaminetetraacetic acid (EDTA), and sodium thiosulfate pentahydrate, adjusted to a pH of 7.30 with HCl. After addition of lifitegrast (50 mg/mL), the pH was adjusted to 6.90. […]

For series [2] the following is noted: literature; cited from earlier work.

In the case of `CS(=O)(=O)c1cccc(C[C@H](NC(=O)c2c(Cl)cc3c(c2Cl)CCN(C(=O)c2ccc4ccoc4c2)C3)C(=O)O)c1` [lifitegrast, Lifitegrast], in series [1], the Cmax is no more than 36 ng/g and the Tmax fell in the range of 15 to 60 min. The half-life in series [1] (plasma t1/2) was 51 min. The half-life in series [1] (t1/2) was roughly 120 min. In addition, the “safety profile in clinical trials” value in series [2] is recorded as “generally well tolerated”.
